Key:
Format in all cases: cell-based, human
[1] = test system: GPR4 mRNA; assay: RT-PCR of GPR4 mRNA in HMEC; conditions: within 2 hours, TNF-α 100 U/ml or H2O2
[2] = test system: GPR4 mRNA; assay: RT-PCR of GPR4 mRNA in HBMEC; conditions: within 2 hours, TNF-α 100 U/ml or H2O2
[3] = test system: monocyte transmigration across HBMEC; assay: Monocyte transmigration assay across HBMEC

Molecule	GPR4 mRNA over control [1]	GPR4 mRNA over control [2]	effect on basal monocyte transmigration [3]	inhibition of LPC-induced monocyte transmigration [3]
OO [H2O2]	not HMEC	increased GPR4 mRNA over control	–	–
C3 transferase	–	–	did not change basal monocyte transmigration	about 65%
TNF-α	not HMEC	increased GPR4 mRNA over control	–	–

— US20060067931A1, “Receptor for lysophosphatidylcholine in vascular endothelial cells and use thereof” (priority 2004, published 2006)
